Values of other authors as cited in patent US20020177547A1, “Pharmaceutical compositions for treating or preventing cancer” (priority 2001, published 2002).

What was measured:
[1] = test system: hgp100 TILs
[2] = test system: peripheral blood lymphocytes (PBL) of melanoma patients; conditions: repeated in vitro stimulation of PBL

Sequence	recognition by TILs [1]	induction of melanoma-reactive CTLs [2]
ITDQVPFSV [peptide 2]	immunodominant	
KTWGQYWQV [peptide 1]	immunodominant	
VLYRYGSFSV (listed as Homo sapiens) [Peptide 3]		able to induce melanoma-reactive CTLs
